Assay [1] concerns TLR2 signaling in primary human umbilical vein endothelial cells. Description: Cytokine response to TLR2 agonism (Pam3CysK4) in primary HUVEC (ELISA). Format: cell-based. The following applies: for IL-8 response to TLR2 (Pam3CysK4) stimulation, in words: summary of Table 22. From the text:
It has been reported in the literature that that ERK5 mediates TLR2-dependent inflammatory signaling in several cell types including human umbilical vein endothelial cells (HUVEC). See Wilhelmsen et al., J Biol Chem. 2012; 287:26478-94. Wilhelmsen et al. further reported that MEK1 negatively regulates TLR2 signaling in HUVECs, with pharmacological inhibition of MEK1 augmenting (IL-6, G-CSF, GM-CSF) or not changing (IL-8) pro-inflammatory cytokine release in response to TLR2 stimulation.
(§1) In this example, the following commercially available inhibitors were tested:
(§2) The results were compared with test compound 61.
(§3) Pooled primary human umbilical vein endothelial cells (HUVEC) were obtained from Lonza (Allendale, N.J.) and maintained in either complete EGM-2 defined media (Lonza) or Medium 200 supplemented with Low Serum Growth Supplement (Life Technologies, Grand Island, N.Y.). Cells at low passage (<5) were seeded at 4e5 cells/ml and allowed to adhere overnight at 37° C. in a humidified atmosphere at 5% CO2. Cells were pre-treated with test compounds for 1 h prior to TLR2 or TLR4 stimulation. To test for the effects of TLR2 agonism, the TLR2 agonist peptide Pam3CysK4 (Santa Cruz Biotechnology, Dallas, Tex.) was used at 10 μg/ml. PHC-SKKK (Enzo Life Sciences, Farmingdale, N.Y.) served as the negative control peptide. To test for the effects of TLR4 agonism, LPS from E. coli 0111:B4 (EMD Millipore, Billerica, Mass.) was used at 100 ng/ml. Cells were incubated for 22 hr, after which the supernatant was collected and analyzed for cytokine concentrations by ELISA (Life Technologies). Absorbance at 450 nm was read using the Wallac 1420 Victor^2 multilabel microplate reader (Perkin Elmer, Waltham, Mass.).
A general note: In an ELISA, binding on a coated surface is turned into a signal by an enzyme label.

Assay [2] deals with TLR4 signaling in primary human umbilical vein endothelial cells. Description: Cytokine response to TLR4 agonism (LPS) in primary HUVEC (ELISA). Format: cell-based. The conditions noted are these: for IL-8: 22 hr; for IL-6 response, in words: summary of Table 24. The procedure:
as §1, §2, §3

Where [3] appears, read: 5 μM inhibitor, +10 μg/ml PHC-SKKK (negative control peptide), 22 hr.
Setting [4] is: 5 μM inhibitor, +10 μg/ml Pam3CysK4, 22 hr.
[5] abbreviates: 10 μM inhibitor, +100 ng/ml LPS.
[6] abbreviates: 10 μM inhibitor, No Stimulation.

On to `O=C(NC[C@H](O)CO)c1ccncc1Nc1ccc(I)cc1F` [AS703026], for which the “IL-8” value in assay [1] (setting [3]) was found to be 0 ± 23 pg/mL; in assay [1] (setting [4]), 732 ± 36 pg/mL; in assay [2] (5 μM inhibitor, +100 ng/ml LPS), 1970 ± 126 pg/mL. Also, the “IL-8 response to TLR2 (Pam3CysK4) stimulation, in words” value (“IL-8 response to TLR2” below) in assay [1] is reported as “moderate IL-8 augmentation”. Further, the “G-CSF” value in assay [2] (setting [5]) came out at 90 ± 13 pg/mL; in assay [2] (setting [6]) it was 30 ± 1 pg/mL. Moreover, the “IL-6” value in assay [2] (setting [5]) was 1368 ± 169 pg/mL; in assay [2] (setting [6]), 529 ± 20 pg/mL. Besides, the “IL-6 response, in words” value in assay [2] is on record as “Cytokine augmentation was observed”.
Take `C[S+]([O-])c1ccc(-c2nc(-c3ccncc3)c(-c3ccc(F)cc3)[nH]2)cc1` (stereo not drawn) [SB203580]: the “IL-8” value in assay [1] (10 μM inhibitor, +10 μg/ml PHC-SKKK (negative control peptide), 22 hr) was 54 ± 12 pg/mL; in assay [1] (10 μM inhibitor, +10 μg/ml Pam3CysK4, 22 hr) it was 450 ± 23 pg/mL; in assay [2] (setting [5]), 1526 ± 54 pg/mL. In addition, in assay [1], the “IL-8 response to TLR2” value is recorded as “reduced the IL-8 response”. In addition, the “G-CSF” value in assay [2] (setting [5]) turned out to be 318 ± 33 pg/mL; in assay [2] (setting [6]), 7 ± 9 pg/mL. Also, the “IL-6” value in assay [2] (setting [5]) is 112 ± 10 pg/mL; in assay [2] (setting [6]) it was 18 ± 5 pg/mL. For the same compound, in assay [2], the “IL-6 response, in words” value is “reduced”.
For the compound `CCOc1cc(N2CCC(O)CC2)ccc1Nc1ncc2c(n1)N(C)c1ccccc1C(=O)N2C` [XMD8-92], the “IL-8” value in assay [1] (setting [3]) was determined as 0 ± 25 pg/mL; in assay [1] (setting [4]) it was 199 ± 11 pg/mL; in assay [2] (5 μM inhibitor, +100 ng/ml LPS) it was 1249 ± 42 pg/mL. Besides, the “IL-8 response to TLR2” value in assay [1] is listed as “reduced the IL-8 response”. Also, the “G-CSF” value in assay [2] (5 μM inhibitor, +100 ng/ml LPS) is 111 ± 6 pg/mL; in assay [2] (5 μM inhibitor, No Stimulation), 0 ± 1 pg/mL. For the same compound, the “IL-6” value turned out to be 170 ± 21 pg/mL in assay [2] (5 μM inhibitor, +100 ng/ml LPS) and 20 ± 1 pg/mL in assay [2] (5 μM inhibitor, No Stimulation). Besides, in assay [2], the “IL-6 response, in words” value is recorded as “reduced”.

(Values after US20170008888A1 (KYORIN PHARMACEUTICAL CO., LTD., priority 2014, published 2017).)
